# From patent publication US10507206B2, “Oral formulations and lipophilic salts of methylnaltrexone” (Wyeth, LLC, priority 2010, dated 2019)
# What was measured:
# [1] = reported value for comparison; cited from earlier work
# [2] = apparent octanol-water partition coefficient (APC) of MNTX salts by HPLC; assay type: physicochemical; conditions: 1-octanol/water, aqueous phase pH between 4.5 and 6.8; for Log P: room temperature; for APC: shaken overnight at room temperature
# Excerpt: The term “apparent partition coefficient,” as used herein, refers to the ratio of concentrations of a compound in any form in the two phases of a mixture of two immiscible solvents at equilibrium. In certain embodiments, the two immiscible solvents are octanol and water. The apparent partition coefficient may be determined under various conditions, for example, temperature, pH, concentration, etc. Apparent partition coefficients have been found useful in estimating the distribution of compounds in the body. Higher apparent partition coefficients denote a more hydrophobic (more lipophilic) compound, while lower apparent partition coefficients denote a hydrophilic compound. The apparent partition coefficient of a compound may be determined by procedures known in the art, for example, in the U.S. Pharmacopeia. The apparent partition coefficient may be determined by the procedure used to determine the apparent partition coefficients of methylnaltrexone dodecyl sulfate and methylnaltrexone heptyl sulfate in the Examples.
# As a measure of lipophilicity of the resulting ion pair, a solution of the composition yields an apparent octanol/water partition coefficient for methylnaltrexone of at least 0.25 at a pH between 1 and 4. The apparent octanol/water partition coefficient as used herein is determined at room temperature at a concentration of approximately 0.5 mg/mL. Exemplary methods for the determination of apparent octanol/water partition coefficient of methylnaltrexone salts are described in the Examples below.
# Ion pairs of methylnaltrexone with amphiphilic pharmaceutically acceptable excipients were prepared and the apparent octanol-water partition coefficient (APC) was measured and compared to that of methylnaltrexone bromide. A pre-determined amount of each of MNTX-heptyl sulfate and MNTX-dodecyl sulfate was dissolved in 2 mL of 1-octanol that was saturated with water. Two mL of water that was saturated with 1-octanol was added to each MNTX salt solution. The mixtures were shaken overnight at room temperature, and 1 mL of the 1-octanol phase was then diluted to 10 mL with the mobile phase used for chromatographic (HPLC) analysis of the samples. And 1 mL of the aqueous phase was diluted to 5 mL with the mobile phase. The samples were then analyzed by HPLC to determine the apparent partition coefficient and log P for each MNTX salt. The pH of the aqueous phases for each of the salts was between 4.5 and 6.8.
# [3] = oral, in general; cited from earlier work
# [4] = tested on: constipation in methadone maintenance patients; conditions: intravenous 0.01-0.37 mg/kg; cited from earlier work
# [5] = intravenous 0.01-0.37 mg/kg, methadone maintenance patients; cited from earlier work
compound,measurement,setting,value
"C[N@+]1(CC2CC2)CC[C@]23c4c5ccc(O)c4O[C@H]2C(=O)CC[C@@]3(O)[C@H]1C5.[Br-] [MNTX, (R)—N-(cyclopropylmethyl) noroxymorphone methobromide]",reported Log P,[1],−1.605
same,reported partition coefficient,[1],0.025
"CCCCCCCOS(=O)(=O)[O-].C[N+]1(CC2CC2)CCC23c4c5ccc(O)c4OC2C(=O)CCC3(O)C1C5 (stereo not shown) [MNTX-heptyl sulfate, methylnaltrexone heptyl sulfate]",Log P,[2],0.292
same,APC,[2],1.961
"C[N+]1(CC2CC2)CC[C@]23c4c5ccc(O)c4O[C@H]2C(=O)CC[C@@]3(O)[C@H]1C5 (stereo partly drawn) [methylnaltrexone, (R)—N-methylnaltrexone]",methylnaltrexone absorbed into the bloodstream when delivered orally,[3],less than 5%
same,laxation,[4],induced “immediate” laxation
same,average peak plasma levels,[5],162 ng/mL
same,"peak plasma levels, range",[5],30 to 774 ng/mL
methylnaltrexone dodecyl sulfate [MNTX-dodecyl sulfate],Log P,[2],1.505
same,APC,[2],32.014
